From patent US20220177511A1, “SERIES OF HALOGENATED TETRACYCLIC TRITERPENE DERIVATIVES AND THEIR PREPARATION AND APPLICATION” (SHANGHAI KING-X BIOTECH CO., LTD, priority 2019, published 2022)

Assays:
[1] = Solubility test in water and FaSSIF; assay type: physicochemical; details: 37° C., up to 24 hours
[2] = Pharmacokinetics of parent HHQ16 after single intragastric administration of compound 2 prodrugs in rats; assay type: in vivo, rat; details: HHQ16 (parent) measured in rats after single intragastric 10 mg/kg of prodrug (dose converted to HHQ16)
Description: 1. The materials and methods for oral absorption test are the same as described in example 44.
The pharmacokinetic parameters of HHQ16 measured after a single intragastric administration of 10 mg/kg of compound 2 prodrug in rats are summarized in Table 2 below.
The half-life was prolonged to varying degrees.

[3] = tested on: C57 mouse CHF model; test: In vivo efficacy on chronic heart failure in mice (coronary artery ligation, echocardiography), enalapril control; details: positive control 2 mg/kg, p<0.0001 (FIG. 6)
Description: C57 mouse coronary artery ligation method was used in this experiment to prepare the mouse CHF model. The differences in echocardiography, hemodynamics and histopathology of the model were observed after administration. Test substance: compound 2. Solvent: 0.3% sodium carboxymethyl cellulose. Dosage: 1 mg/kg, 3 mg/kg, 10 mg/kg, 30 mg/kg and 100 mg/kg. Route of administration: intragastric. Control drug: enalapril 2 mg/kg. Strain: C57 mouse; Age: 7 weeks; Weight: 18-20 g; Gender: Male; Grade: SPF C57 mouse CHF model was established by coronary artery ligation method in this experiment. The differences in echocardiography, hemodynamics and histopathology of the model were observed after administration. 5 dose groups were set for compound 2 in this experiment. Enalapril was selected as the positive control. Once daily for 28 consecutive days. The doses for each group was 1 mg/kg, 3 mg/kg, 10 mg/kg, 30 mg/kg and 100 mg/kg. Positive control group: Enalapril (2 mg/kg) was administered after CHF was established. The mice were anesthetized in a box filled with isoflurane. After the mice were anesthetized, the left 4th intercostal space was opened to expose the left atrial appendage and left ventricle. It can be seen that the left coronary artery runs downward from the middle of the left atrial appendage to the anterior wall of the left ventricle. The coronary artery is sutured at a high position about 1 mm from the lower border of the left atrial appendage. After ligation, the myocardium gradually changes from fleshy red to pale white, indicating myocardial infarction. The model is successfully established, and the chest is closed layer by layer. After the spontaneous breathing of the mice recovered, the mice were caged and reared in a day-night cycle with free access to water and food. After being reared for 30 days, the chronic heart failure model was detected by echocardiography, and the mice with successful chronic heart failure model were selected. Qualified CHF mice screened by echocardiography were randomly grouped. Mice were given compound 2 by intragastric administration once daily for 28 consecutive days. The body weight of mice was measured every week, and echocardiography was performed after 28 days of administration. After the […] anesthetized, 1 mm^3 tissue was taken from the hearts of 3 mice in each group, fixed with electron microscope fixative, and detected by transmission electron microscope to observe the ultrastructure of the heart. All remaining heart tissues were fixed with 10% formaldehyde, and stained with HE for histopathology to observe histopathological changes.

| Molecule | Solubility ([1]; FaSSIF (pH 6.5)) | Solubility ([1]; Water) | AUC0-t [2] | Cmax [2] | t1/2 [2] | Cardiac output per minute (CO), day 28 vs day 0 [3] |
| --- | --- | --- | --- | --- | --- | --- |
| CC(C)C(N)C(=O)OC1CC2C3(C)CC(O)C(C4(C)CCC(C(C)(C)O)O4)C3(C)CCC23CC32CCC(F)(F)C(C)(C)C12.Cl (mixture of isomers) [Compound 2-15, 1-(((2aR,3R,4S,5aS,5bS,7S,7aR,11aR,12aS)-9,9-difluoro-4-hydroxy-3-((2S,5S)-5-(2-hydroxypropan-2-yl)-2-methyltetrahydrofuran-2-yl)-2a,5a,8,8-tetramethyltetradecahydro-1H,12H-cyclopenta[a]cyclopropa[e]phenanthren-7-yl)oxy)-3-methyl-1-oxobutan-2-aminium Chloride] | 3020 µg/mL | 770 µg/mL | 4500 ng·h/mL | 451 ng/mL | 8.2 h | – |
| CC(C)(O)[C@@H]1CC[C@@](C)([C@H]2[C@@H](O)C[C@@]3(C)[C@@H]4C[C@H](OC(=O)C[C@H]5CCCN5)[C@H]5C(C)(C)C(F)(F)CC[C@@]56C[C@@]46CC[C@]23C)O1.Cl [Compound 2-3, (R)-2-(2-(((2aR,3R,4S,5aS,5bS,7S,7aR,11aR,12aS)-9,9-difluoro-4-hydroxy-3-((2S,5S)-5-(2-hydroxypropan-2-yl)-2-methyltetrahydrofuran-2-yl)-2a,5a,8,8-tetramethyltetradecahydro-1H,12H-cyclopenta[a]cyclopropa[e]phenanthren-7-yl)oxy)-2-oxoethyl)pyrrolidin-1-ium Chloride] | 1800 µg/mL | 950 µg/mL | 3200 ng·h/mL | 460 ng/mL | 3.98 h | – |
| Br.CC(C)(O)C1CCC(C)(C2C(O)CC3(C)C4CC(OC(=O)CN)C5C(C)(C)C(F)(F)CCC56CC46CCC23C)O1 [Compound 2-16, 2-(((2aR,3R,4S,5aS,5bS,7S,7aR,11aR,12aS)-9,9-difluoro-4-hydroxy-3-((2S,5S)-5-(2-hydroxypropan-2-yl)-2-methyltetrahydrofuran-2-yl)-2a,5a,8,8-tetramethyltetradecahydro-1H,12H-cyclopenta[a]cyclopropa[e]phenanthren-7-yl)oxy)-2-oxoethan-1-aminium Bromide] | 5300 µg/mL | 950 µg/mL | 4623 ng·h/mL | 510 ng/mL | 5.2 h | – |
| CC(C)(O)[C@@H]1CC[C@@](C)([C@H]2[C@@H](O)C[C@@]3(C)[C@@H]4C[C@H](OC(=O)[C@@H](N)CO)[C@H]5C(C)(C)C(F)(F)CC[C@@]56C[C@@]46CC[C@]23C)O1.Cl [Compound 2-19, (S)-1-(((2aR,3R,4S,5aS,5bS,7S,7aR,11aR,12aS)-9,9-difluoro-4-hydroxy-3-((2S,5S)-5-(2-hydroxypropan-2-yl)-2-methyltetrahydrofuran-2-yl)-2a,5a,8,8-tetramethyltetradecahydro-1H,12H-cyclopenta[a]cyclopropa[e]phenanthren-7-yl)oxy)-3-hydroxy-1-oxopropan-2-aminium chloride] | 3980 µg/mL | 1240 µg/mL | 4400 ng·h/mL | 602 ng/mL | 3.5 h | – |
| CC(O)C(N)C(=O)OC1CC2C3(C)CC(O)C(C4(C)CCC(C(C)(C)O)O4)C3(C)CCC23CC32CCC(F)(F)C(C)(C)C12.Cl [Compound 2-20, (2S,3S)-1-(((2aR,3R,4S,5aS,5bS,7S,7aR,11aR,12aS)-9,9-difluoro-4-hydroxy-3-((2S,5S)-5-(2-hydroxypropan-2-yl)-2-methyltetrahydrofuran-2-yl)-2a,5a,8,8-tetramethyltetradecahydro-1H,12H-cyclopenta[a]cyclopropa[e]phenanthren-7-yl)oxy)-3-hydroxy-1-oxobutan-2-aminium Chloride] | 2800 µg/mL | 1200 µg/mL | 4005 ng·h/mL | 582 ng/mL | 3.6 h | – |
| CC(C)(O)[C@@H]1CC[C@@](C)([C@H]2[C@@H](O)C[C@@]3(C)[C@@H]4C[C@H](OC(=O)CNC(=O)CN)[C@H]5C(C)(C)C(F)(F)CC[C@@]56C[C@@]46CC[C@]23C)O1.Cl [Compound 2-27, 2-((2-(((2aR,3R,4S,5aS,5bS,7S,7aR,11aR,12aS)-9,9-difluoro-4-hydroxy-3-((2S,5S)-5-(2-hydroxypropan-2-yl)-2-methyltetrahydrofuran-2-yl)-2a,5a,8,8-tetramethyltetradecahydro-1H,12H-cyclopenta[a]cyclopropa[e]phenanthren-7-yl)oxy)-2-oxoethyl)amino)-2-oxoethan-1-aminium Chloride] | 4300 µg/mL | 1300 µg/mL | 3005 ng·h/mL | 358 ng/mL | 7.5 h | – |
| CN(CC(=O)OC1CC2C3(C)CC(O)C(C4(C)CCC(C(C)(C)O)O4)C3(C)CCC23CC32CCC(F)(F)C(C)(C)C12)C(=O)C(N)Cc1ccccc1.Cl [Compound 2-28, (R)-1-((2-(((2aR,3R,4S,5aS,5bS,7S,7aR,11aR,12aS)-9,9-difluoro-4-hydroxy-3-((2S,5S)-5-(2-hydroxypropan-2-yl)-2-methyltetrahydrofuran-2-yl)-2a,5a,8,8-tetramethyltetradecahydro-1H,12H-cyclopenta[a]cyclopropa[e]phenanthren-7-yl)oxy)-2-oxoethyl)(methyl)amino)-1-oxo-3-phenylpropan-2-aminium Chloride] | 2850 µg/mL | 650 µg/mL | 4332 ng·h/mL | 475 ng/mL | 6.2 h | – |
| CC(N)C(=O)N(C)CC(=O)OC1CC2C3(C)CC(O)C(C4(C)CCC(C(C)(C)O)O4)C3(C)CCC23CC32CCC(F)(F)C(C)(C)C12.Cl [Compound 2-29, (S)-1-((2-(((2aR,3R,4S,5aS,5bS,7S,7aR,11aR,12aS)-9,9-difluoro-4-hydroxy-3-((2S,5S)-5-(2-hydroxypropan-2-yl)-2-methyltetrahydrofuran-2-yl)-2a,5a,8,8-tetramethyltetradecahydro-1H,12H-cyclopenta[a]cyclopropa[e]phenanthren-7-yl)oxy)-2-oxoethyl)(methyl)amino)-1-oxopropan-2-aminium Chloride] | 3130 µg/mL | 950 µg/mL | 5221 ng·h/mL | 605 ng/mL | 5.6 h | – |
| CC(C)(O)[C@@H]1CC[C@@](C)([C@H]2[C@@H](O)C[C@@]3(C)[C@@H]4C[C@H](OC(=O)CNC(=O)[C@@H](N)CO)[C@H]5C(C)(C)C(F)(F)CC[C@@]56C[C@@]46CC[C@]23C)O1.Cl [Compound 2-31, (S)-1-((2-(((2aR,3R,4S,5aS,5bS,7S,7aR,11aR,12aS)-9,9-difluoro-4-hydroxy-3-((2S,5S)-5-(2-hydroxypropan-2-yl)-2-methyltetrahydrofuran-2-yl)-2a,5a,8,8-tetramethyltetradecahydro-1H,12H-cyclopenta[a]cyclopropa[e]phenanthren-7-yl)oxy)-2-oxoethyl)amino)-3-hydroxy-1-oxopropan-2-aminium Chloride] | 6250 µg/mL | 1650 µg/mL | 3888 ng·h/mL | 403 ng/mL | 4.5 h | – |
| CCOC(=O)[C@H](CCc1ccccc1)N[C@@H](C)C(=O)N1CCC[C@H]1C(=O)O [Enalapril, reference compound] | – | – | – | – | – | very significant increase |
| (S)-1-(((2aR,3R,4S,5aS,5bS,7S,7aR,11aR,12aS)-9,9-difluoro-4-hydroxy-3-((2S,5S)-5-(2-hydroxypropan-2-yl)-2-methyltetrahydrofuran-2-yl)-2a,5a,8,8-tetramethyltetradecahydro-1H,12H-cyclopenta[a]cyclopropa[e]phenanthren-7-yl)oxy)-1-oxopropan-2-aminium Chloride [Compound 2-17] | – | – | 5222 ng·h/mL | 501 ng/mL | 7.8 h | – |
